Series [1] concerns laser-induced CNV in C57/BL6J (B6J) wild type mice. Description: Laser-induced choroidal neovascularization (CNV) model in mice, area of leakage by FFA. It is filed as in vivo. As to conditions: mice; IV route. Here is the method: (§1) FIG. 3A is a schematic of the experimental design on the efficacy of Angio-3 in a laser-induced choroidal neovascularization (CNV) model in mice (B6J WT mice). FIG. 3B are FFA images of baseline and at different time points post treatment. IV single injection of 100 μL of Angio-3 (25 mg/Kg Bwt) was given at Day 0 (prevention mode) and 4 days after laser (regression mode) and followed for 10 weeks. FIG. 3C is a graph showing the area of leakage by each eye for various groups. FIG. 3D are graphs of the mean area of leakage of all batches for each group. […] The attenuation retinal vascularization was better than scrambled peptide. n=6 eyes per batch; n=3 batches. Values are expressed as means±s.e.m., **P<0.01, *P<0.05, student's t-test. FIG. 3E is a graph of the result of the Retinal Function Test that measures ERG changes in Angio-3 treated and control.
FIG. 4A is a schematic of the experimental design on the efficacy of Angio-3 by IVT administration. […]
FIG. 11 A are FFA images of baseline and at different time points post treatment. Mice received single IVT injection of Angio-3 (at a dose of 1 μg in 1 μl or 100 ng in 1 μl), and chemically modified Angio-3 peptides Pep-N (at doses of 5 μg in μl; 1 μg in μl; and 100 ng in 1 μl, respectively) and Pep-Q peptides (at doses of 5 μg in μl; 1 μg in μl; and 100 ng in 1 μl, respectively). FIG. 11 B is a graph of the area of leakage by each eye. Single dose attenuates retinal angiogenesis in laser-induced mice CNV model via IVT route till 4 weeks. […] Eylea is the positive control. n=18 eyes per group; Values are expressed as means±s.e.m. n=3 independent experiment, **P<0.01, *P<0.05, student's t-test.
Laser induced choridal neo-vascularization (CNV) in C57/BL6J (B6J) wild type mice (n=90).
In B6J mice, single injection of 100 μl volume at 25 mg/kg Bwt concentration Angio-3 was injected via intravenous (i/v) route and this was tested in both Preventive mode (before laser) and Regression mode (4 days after laser). […]
Angio-3 was also injected via intravitreal (IVT) route, single injection of 1 μl volume at 2 different doses; 1 μg (High dose) and 100 ng (Low dose).
4 laser photocoagulation sites were placed concentrically around the optic disc of both eyes to induce CNVs. A diode laser (810 nm) was used with a relative potency scale of 120 mW for mice and 250 mW for rats, an exposure time of 0.05 s, and a spot size of […]. Laser spots were focused with crystal covers to avoid laser beam dispersion. Bubble formation was confirmed the rupture of Bruch's membrane.
Fundus photography and fundus fluorescein angiography (FFA) was imaged using a MICRON IV fundus camera (Phoenix Laboratories USA). For FFA, animals were intraperitoneally injected with 10% sodium fluorescein at a dose of 0.01 ml per 5-6 gm body weight.
In B6J mice, single intravitreous (IVT) injection of 100 ng, 1 μg, 5 μg PEP-Q, PEP-N (modified Angio-3), Angio-3 and Eylea were executed and this was tested in Prevention mode (before laser) Method of Llser induced CNV model and injection was described as above.

Series [2] has as its system retinal function (a- and b-wave) in B6J WT mice. Description: Retinal function test (ERG) in laser-induced CNV mice. It is filed as in vivo, mouse. As to conditions: laser-induced CNV mice with and without Angio-3 treatment. On the procedure:
as §1
Animals were dark-adapted overnight (12 h), and the preparations for recordings were carried out under dim red light. Anesthesia and pupil dilation were induced as described. Animals were lightly secured to a stage with fastener strips across the upper and lower back to ensure a stable, reproducible position for ERG recordings. […] ERGs were recorded (Espion; Diagnosis LLC, Redwood City, Calif.) with corneal monopolar electrodes (Mayo, Aichi, Japan). […]

Series [3] deals with KIBA mice that overexpress hVEGF. Kind of series: Retinal function tests (ERG) in KIBA/KIMBA mice overexpressing hVEGF. It is filed as in vivo, mouse. As to conditions: IVT treated; 2nd IVT at 12 weeks after 1st treatment. On the procedure:
Eight-week-old KIBA mice that overexpress hVEGF were dark-adapted overnight (for at least 12 hours) and all the procedures were carried out under dim red light. Mice were anesthetized with a combination of ketamine (20 mg/kg body weight) and xylazine (2 mg/kg body weight). Pupils were dilated with a topical administration of 1% tropicamide (Alcon Laboratories, Inc., Fort Worth, Tex., USA) and 2.5% phenylephrine (Bausch and Lomb Pharmaceuticals, Inc., Tampa, Fla., USA) ophthalmic solutions.
Animals were placed in ERG recording table with body temperature controller for ERG recordings. Electroretinograms were recorded (Espion; Diagnosys LLC, Lowell, Mass., USA) with corneal monopolar electrodes. A goldcup electrode was placed in the mouth to serve as the reference electrode, and a silver-silver chloride electrode (Grass-Telefactor, West Warwick, R.I., USA) was placed in the tail to serve as the ground electrode. Recordings were performed at a wide range of stimulus intensity (−3.0 to 1.0 log cd·s/m2) in dark-adapted (scotopic) condition. The response a teach flash intensity was an average of at least five trials. […]
ERG was recorded from 8 weeks old to 24 weeks old of mice in untreated group (naïve group). In Angio-3 IVT treated group, ERG was recorded at 8 weeks old as baseline (BL) and then 6 and 12 weeks post treatment. […]

Series [4] has as its system corneal epithelial wound in wild-type mice. Description: Corneal wound healing in a mouse model. It is filed as in vivo. As to conditions: day 0 to Day 5; treated vs control wild-type mice. The source says: FIGS. 28A and 28B are images and a graph showing results of testing wound healing in a mouse model. FIG. 28A are representative slitlamp biomicroscopy images of murine cornea following the removal of corneal epithelium from Angio-3 treated and control wild-type mice and topical fluorescein staining of the epithelial defect (green). FIG. 28B is a graph of the percentage of wound defect remaining (vertical axis) over time (horizontal axis) in Angio-3 treated and control wild-type mice, n=6 for each group from 2 independent experiments. Both groups are statistically significant. Angio-3 didn't affect the normal wound healing process. Data is represented as mean±S.D.
Two (2)-mm trephine was used to mark the wound size. Epithelium, basement membrane and some stromal layers were removed by peeling using forceps. Fluorescein staining to the wounded area of cornea was done from day 0 to Day 5 (n=6 mice per group from 2 independent experiments). Gentle and meticulous approach when wounding and handling mouse cornea, fluorescein was diluted, slit lamp images had to be taken within a few seconds after staining. The wound area was quantified by ImageJ software. Student's t-test was used to compare data between two groups; P<0.05 was considered to be significant.

Where no end group is shown, it is not given here.

Take “TPHTHNRTPE [Angio-3, Thr Pro His Thr His Asn Arg Thr Pro Glu]”: in series [1], the “natural wound healing process, menstrual cycle and behavioural change (safety of systemic route)” value is “did not affect the natural wound healing process, menstrual cycle and behavioural change”. Also, the “retinal function (ERG a- and b-wave amplitude)” value in series [2] is reported as “no significant difference in retinal function”. The “ERG a and b-wave responses (retinal function)” value in series [3] is “increased the a and b-wave responses for 6 weeks post treatment and then again increased the response for 20 weeks with second dose”. The “normal corneal wound healing process (percentage of wound defect remaining)” value in series [4] was “didn't adversely affect the normal wound healing process”.
